Reference: patent US20160160268A1, “AMDINOCILLIN FOR RAPID DETERMINATION OF SUSCEPTIBILITY TO BETA-LACTAM ANTIBIOTICS” (THE REGENTS OF THE UNIVERSITY OF CALIFORNIA, priority 2013, published 2016)

Key:
Format in all cases: cell-based
[1] = tested on: antibiotic susceptible and resistant E. coli strains; experiment: Mature rRNA and pre-rRNA response to beta-lactam antibiotics with or without amdinocillin; details: for differentiation of antibiotic-susceptible from antibiotic-resistant bacteria on addition of amdinocillin to the assay: with amdinocillin
Description: As a result of blocking filamentation, levels of mature rRNA and pre-rRNA decrease within 30-45 min when amdinocillin is combined with beta lactam antibiotics. […] For example, at a concentration of 32 μg/ml, cefazolin causes a drop of pre-rRNA within 30 min whether or not amdinocillin is present.
Ampicillin-susceptible E. coli (strain EC135) was treated with ampicillin (16 μg/ml) alone, amdinocillin (1 μg/ml) alone, ampicillin plus amdinocillin, or neither. […] Effects on pre-rRNA were more pronounced than those on mature rRNA.
Ceftriaxone-susceptible E. coli (strain EC103) was treated with ceftriaxone ([…]) alone, amdinocillin ([…]) alone, ceftriaxone plus amdinocillin, or neither. Ceftriaxone-mediated effects on mature rRNA and pre-rRNA occurred 60 min faster with amdinocillin than without amdinocillin.
Cefazolin-susceptible E. coli (strain EC103) was treated with amdinocillin (1 μg/ml) plus cefazolin at concentrations ranging from 0-32 μg/ml.
Graphs illustrating the effects of beta-lactam antibiotics plus amdinocillin on antibiotic susceptible and resistant bacteria can be found in FIGS. 14A-14D. Antibiotic susceptible and resistant bacteria were treated with amdinocillin (1 μg/ml) plus various beta lactam antibiotics including 16 μg/ml cefazolin, 4 μg/ml ceftriaxone, 32 μg/ml piperacillin plus 4 μg/ml tazobactam, and 2 μg/ml imipenem. Differential effects on pre-rRNA of susceptible from resistant bacteria were evident within 30-90 min.

[2] = tested on: susceptible strain of E. coli; experiment: Response of pre-rRNA to cefazolin in log phase culture; details: log phase of growth
[3] = tested on: E. coli clinical urine isolate EC103; experiment: Electrochemical sensor assay of mature rRNA and pre-rRNA after adding an antibiotic to a growing culture; details: for effect on mature rRNA level: 25 μg/ml Chloramphenicol or 16 μg/ml Gentamicin added at 150 or 210 minutes; for effect on pre-rRNA level: 25 μg/ml Rifampicin, 25 μg/ml Chloramphenicol, 4 μg/ml Ciprofloxacin or 16 μg/ml Gentamicin added at 150 or 210 minutes
Description: Overnight cultures of EC103 were prepared by adding 5 μl of EC103 glycerol stock to 5 ml of MH broth with ampicillin and incubated at 37° C. overnight with shaking. […] Every 30 min, including at 0 min and the overnight culture itself, a 1 ml sample was taken for OD600 measurement and 10-fold serial dilutions (100 μl into 900 μl) were performed in room temperature MH broth. Cell density was determined by plating serial dilutions in triplicate. At each time point, culture samples were transferred to an ice water bath or centrifuged immediately at 4° C. for 3 min at 14,000 rpm.
Electrochemical detection.
Each sensor of the array consisted of a 2.5 mm diameter central working electrode, surrounded by an Au counter electrode and an Au pseudo-reference electrode. […] Washing steps were carried out after each application of reagents by applying a stream of deionized H2O to the sensor surface for approximately 2-3 sec followed by 5 sec of drying under a stream of nitrogen. Prior to addition of the first reagent, the bare gold chips were dried as described above. To functionalize the working sensor surface, a fresh mixture of 0.05 μM thiolated capture probe and 300 μM 1,6-hexanedithiol (96%, Sigma, St. Louis, Mo.) was prepared in 10 mM Tris-HCl, 1 mM EDTA and 0.3 M NaCl (pH 8.0) and allowed to stand at room temperature for 10 min. Aliquots of 6 μl of this mixture were cast over each Au working electrode in the 16-sensor array and incubated overnight at 4° C. in a humidified chamber.

[4] = tested on: lawn of E. coli (strains EC135, EC96, EC103, NDM-1); experiment: Kirby-Bauer disc diffusion antibiotic-susceptibility test
From the text: FIGS. 15A-15F present digital photomicrographs showing results of Kirby-Bauer disc diffusion antibiotic-susceptibility tests. 6 mm diameter antibiotic discs were placed on agar plates seeded with a lawn of E. coli that were Ampicillin susceptible (strain EC135), Ampicillin resistant (strain EC96), Cefazolin susceptible (strain EC103), Cefazolin resistant (strain EC96), Imipenem susceptible (strain EC103) or Imipenem resistant (strain NDM-1). In each panel the antibiotic disc is on the left and the amdinocillin disc is on the right. Images were obtained after 20 hours of incubation at 37° C.

[5] = tested on: E. coli (strain EC103) cells; experiment: E. coli cell length (filamentation) measurement
Description: The lengths of ampicillin-susceptible E. coli (strain EC103) cells were measured after treatment for 30 minutes with no antibiotics, ampicillin, or ampicillin plus amdinocillin. Digital photomicrographs of representative cells treated with no antibiotics (16A), ampicillin (16B), and ampicillin plus amdinocillin (16C) are shown.

Cc1nnc(SCC2=C(C(=O)O)N3C(=O)[C@@H](NC(=O)Cn4cnnn4)[C@H]3SC2)s1 [cefazolin]
dependence of the amdinocillin effect on the antibiotic concentration [1]: dependent on the antibiotic concentration | concentration dependence of fall in pre-rRNA levels ([1]; cefazolin 0-32 μg/ml plus amdinocillin 1 μg/ml, strain EC103): fell more quickly at higher cefazolin concentrations | effect on pre-rRNA ([1]; cefazolin 4 μg/ml): does not cause a drop of pre-rRNA unless amdinocillin is present | time within which pre-rRNA drops ([1]; cefazolin 32 μg/ml, whether or not amdinocillin is present): ≤ 30 min | differentiation of antibiotic-susceptible from antibiotic-resistant bacteria on addition of amdinocillin to the assay [1]: enables rapid differentiation | drop in amount of pre-rRNA compared to culture without antibiotic [2]: one-log drop | time within which the pre-rRNA drop occurred [2]: ≤ 30 min

O=C(N[C@H](CO)[C@H](O)c1ccc([N+](=O)[O-])cc1)C(Cl)Cl [chloramphenicol]
effect on mature rRNA level [3]: decrease | effect on pre-rRNA level [3]: selective increase

gentamicin
effect on mature rRNA level [3]: decrease | effect on pre-rRNA level [3]: without affecting

CCN1CCN(C(=O)N[C@@H](C(=O)N[C@@H]2C(=O)N3[C@@H]2SC(C)(C)[C@@H]3C(=O)O)c2ccccc2)C(=O)C1=O [piperacillin]
differentiation of antibiotic-susceptible from antibiotic-resistant bacteria on addition of amdinocillin to the assay [1]: enables rapid differentiation

CO/N=C(\C(=O)N[C@@H]1C(=O)N2C(C(=O)O)=C(COC(C)=O)CS[C@H]12)c1csc(N)n1 [cefotaxime]
differentiation of antibiotic-susceptible from antibiotic-resistant bacteria on addition of amdinocillin to the assay [1]: enables rapid differentiation

CC1(C)S[C@@H]2[C@H](/N=C/N3CCCCCC3)C(=O)N2[C@H]1C(=O)O [amdinocillin]
synergy between amdinocillin and the antibiotics tested ([4]; ampicillin, cefazolin, imipenem discs, 20 hours at 37° C.): Synergy was not observed | effect of amdinocillin on susceptibility of bacteria to beta-lactam antibiotics ([4]; disc diffusion): did not increase the susceptibility | effect of amdinocillin alone on rRNA or pre-rRNA levels ([1]; amdinocillin alone): no effect | effect of amdinocillin on recognition of ampicillin susceptibility ([1]; ampicillin 16 μg/ml, amdinocillin 1 μg/ml, strain EC135): enabled early recognition of ampicillin susceptibility | effect of amdinocillin on recognition of cefazolin susceptibility ([1]; cefazolin 4 μg/ml, amdinocillin 1 μg/ml, strain EC103): enabled early recognition of cefazolin-susceptibility | effect of amdinocillin on pre-RNA levels ([1]; cefazolin 32 μg/ml, amdinocillin 1 μg/ml, strain EC103): no effect | effect on filamentation caused by beta-lactam antibiotics [5]: prevents filamentation | effect on ampicillin-induced increase in cell length ([5]; ampicillin plus amdinocillin, 30 minutes, strain EC103): partially blocked

CC1(C)S[C@@H]2[C@H](NC(=O)[C@H](N)c3ccccc3)C(=O)N2[C@H]1C(=O)O [ampicillin]
dependence of the amdinocillin effect on the antibiotic concentration [1]: independent of the antibiotic concentration | differentiation of antibiotic-susceptible from antibiotic-resistant bacteria on addition of amdinocillin to the assay [1]: enables rapid differentiation | average increase in length of E. coli cells ([5]; treatment for 30 minutes, strain EC103): 4 fold

CO/N=C(\C(=O)N[C@@H]1C(=O)N2C(C(=O)O)=C(CSc3nc(=O)c(=O)[nH]n3C)CS[C@H]12)c1csc(N)n1 [ceftriaxone]
how much faster effects on mature rRNA and pre-rRNA occurred with amdinocillin than without ([1]; ceftriaxone (8 pg/ml), amdinocillin 1 μg/ml, strain EC103): 60 min
